Assay results reported in ChEMBL document CHEMBL5370540, “Discovery of pyrimidine-5-carboxamide derivatives as novel salt-inducible kinases (SIKs) inhibitors for inflammatory bowel disease (IBD) treatment” (Eur J Med Chem, 2023).
Activity calls are given as the source filed them. No cut-off for these calls is given here.

How the values were obtained:
[1] = target: Serine/threonine-protein kinase SIK2 (Mus musculus) (UniProt Q8CFH6); assay: Inhibition of SIK2 in C57BL/6J mouse BMDM cells assessed as increase in c-FOS mRNA level at 500 nM preincubated for 1 hr followed by LPS stimulation measured for 2 to 4 hrs by qPCR analysis; assay type: cell-based; settings: time 3-5 hrs
Chain of Serine/threonine-protein kinase SIK2 (Mus musculus) (Q8CFH6 whole entry): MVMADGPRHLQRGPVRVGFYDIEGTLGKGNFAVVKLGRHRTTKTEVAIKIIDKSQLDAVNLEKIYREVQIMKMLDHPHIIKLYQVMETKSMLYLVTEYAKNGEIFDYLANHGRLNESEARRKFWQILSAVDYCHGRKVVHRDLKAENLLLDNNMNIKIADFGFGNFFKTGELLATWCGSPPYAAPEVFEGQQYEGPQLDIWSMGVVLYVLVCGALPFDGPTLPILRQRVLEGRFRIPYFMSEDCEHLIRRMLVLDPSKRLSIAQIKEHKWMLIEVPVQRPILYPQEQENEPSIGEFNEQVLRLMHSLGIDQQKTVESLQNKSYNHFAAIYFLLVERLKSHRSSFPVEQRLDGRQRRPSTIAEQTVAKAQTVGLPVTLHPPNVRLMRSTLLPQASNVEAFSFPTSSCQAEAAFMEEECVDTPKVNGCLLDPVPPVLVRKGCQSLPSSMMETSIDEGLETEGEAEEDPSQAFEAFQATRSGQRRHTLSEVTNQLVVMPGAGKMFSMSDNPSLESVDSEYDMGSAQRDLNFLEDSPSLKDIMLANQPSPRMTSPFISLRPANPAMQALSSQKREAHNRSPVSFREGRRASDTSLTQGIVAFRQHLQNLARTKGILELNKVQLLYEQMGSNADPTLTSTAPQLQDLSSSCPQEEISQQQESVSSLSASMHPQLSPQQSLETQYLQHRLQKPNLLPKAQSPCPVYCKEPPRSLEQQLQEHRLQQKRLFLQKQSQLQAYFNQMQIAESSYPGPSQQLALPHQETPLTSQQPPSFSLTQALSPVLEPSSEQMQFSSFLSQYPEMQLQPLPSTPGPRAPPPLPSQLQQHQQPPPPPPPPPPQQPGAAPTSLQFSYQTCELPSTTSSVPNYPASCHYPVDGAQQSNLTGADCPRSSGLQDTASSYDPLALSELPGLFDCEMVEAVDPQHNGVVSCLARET

Mus musculus [2] = assay: Antiinflammatory activity in DSS-induced colitis C57BL/6J mouse model assessed as decrease in disease activity index at 7.5 to 30 mg/kg, ip; assay type: functional, organism-based; settings: dose 7.5-30 mg/kg
[3] = target: Serine/threonine-protein kinase SIK2 (Mus musculus) (UniProt Q8CFH6); assay: Inhibition of SIK2 in C57BL/6J mouse BMDM cells assessed as increase in Nurr77 mRNA level at 500 nM preincubated for 1 hr followed by LPS stimulation measured for 1 hr by qPCR analysis; assay type: cell-based; settings: time 2.0 hrs
[4] = target: Tyrosine-protein kinase Lyn (Homo sapiens) (UniProt P07948); assay: Inhibition of Lyn (unknown origin) at 1 uM
Chain of Tyrosine-protein kinase Lyn (Homo sapiens) (P07948 2-512 limits assumed): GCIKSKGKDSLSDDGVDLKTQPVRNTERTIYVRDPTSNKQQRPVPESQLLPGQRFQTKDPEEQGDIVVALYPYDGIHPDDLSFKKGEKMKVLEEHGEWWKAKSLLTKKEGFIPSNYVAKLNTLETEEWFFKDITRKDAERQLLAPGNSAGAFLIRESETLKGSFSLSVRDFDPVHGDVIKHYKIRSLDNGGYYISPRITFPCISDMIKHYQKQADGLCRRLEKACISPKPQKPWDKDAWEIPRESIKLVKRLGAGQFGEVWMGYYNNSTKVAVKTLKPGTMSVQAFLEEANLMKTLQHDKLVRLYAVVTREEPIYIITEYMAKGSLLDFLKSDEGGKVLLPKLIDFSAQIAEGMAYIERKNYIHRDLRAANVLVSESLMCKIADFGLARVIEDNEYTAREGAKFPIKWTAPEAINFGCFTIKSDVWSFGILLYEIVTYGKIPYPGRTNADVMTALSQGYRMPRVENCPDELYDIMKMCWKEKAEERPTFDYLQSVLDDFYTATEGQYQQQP

[5] = target: Tyrosine-protein kinase ABL1 (Homo sapiens) (UniProt P00519); assay: Inhibition of Abl (unknown origin) at 1 uM
Chain of Tyrosine-protein kinase ABL1 (Homo sapiens) (P00519 whole entry): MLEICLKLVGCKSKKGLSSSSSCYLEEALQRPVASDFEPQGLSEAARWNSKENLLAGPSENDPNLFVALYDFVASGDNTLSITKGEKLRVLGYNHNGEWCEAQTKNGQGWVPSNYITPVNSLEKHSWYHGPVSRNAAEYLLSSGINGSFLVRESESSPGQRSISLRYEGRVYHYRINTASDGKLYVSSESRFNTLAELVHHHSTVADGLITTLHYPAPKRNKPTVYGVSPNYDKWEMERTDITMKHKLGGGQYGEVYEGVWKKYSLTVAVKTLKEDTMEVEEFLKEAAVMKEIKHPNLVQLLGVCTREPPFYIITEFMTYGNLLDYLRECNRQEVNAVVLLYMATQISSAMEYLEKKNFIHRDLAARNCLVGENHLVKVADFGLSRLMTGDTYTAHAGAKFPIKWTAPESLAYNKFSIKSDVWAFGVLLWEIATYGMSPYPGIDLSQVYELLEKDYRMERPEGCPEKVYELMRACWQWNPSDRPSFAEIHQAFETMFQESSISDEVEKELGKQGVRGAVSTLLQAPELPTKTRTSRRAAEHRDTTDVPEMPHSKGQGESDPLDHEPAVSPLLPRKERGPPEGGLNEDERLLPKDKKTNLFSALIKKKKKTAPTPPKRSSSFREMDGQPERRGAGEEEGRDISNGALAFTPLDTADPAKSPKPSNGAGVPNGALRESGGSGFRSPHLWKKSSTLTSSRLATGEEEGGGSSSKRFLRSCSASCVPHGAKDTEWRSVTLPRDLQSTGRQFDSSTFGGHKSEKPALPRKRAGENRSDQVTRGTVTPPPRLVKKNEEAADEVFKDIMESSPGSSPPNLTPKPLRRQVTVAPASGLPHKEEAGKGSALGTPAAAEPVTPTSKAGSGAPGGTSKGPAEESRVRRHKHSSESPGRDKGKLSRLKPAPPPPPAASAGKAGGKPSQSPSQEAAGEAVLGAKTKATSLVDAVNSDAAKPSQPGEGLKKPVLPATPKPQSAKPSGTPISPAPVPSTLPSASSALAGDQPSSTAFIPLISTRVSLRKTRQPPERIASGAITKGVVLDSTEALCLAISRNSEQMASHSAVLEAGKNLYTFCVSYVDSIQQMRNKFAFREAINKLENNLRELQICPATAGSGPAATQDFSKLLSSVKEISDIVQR

[6] = Tmax in Sprague-Dawley rat at 5 mg/kg, iv measured upto 24 hrs by LC/MS/MS analysis; assay type: ADME, organism-based; settings: in vivo
Mus musculus [7] = assay: Antiinflammatory activity in DSS-induced colitis C57BL/6J mouse model assessed as decrease in thickening of inherent base layer at 50 to 100 mg/kg, po measured after 12 days by H&E staining based analysis; assay type: functional, organism-based; settings: dose 50-100 mg/kg, time 12.0 day
[8] = target: Proto-oncogene tyrosine-protein kinase Src (Homo sapiens) (UniProt P12931); assay: Inhibition of SRC (1 to 530 residues)(unknown origin) at 1 uM
Chain of Proto-oncogene tyrosine-protein kinase Src (Homo sapiens) (P12931 2-536 limits assumed): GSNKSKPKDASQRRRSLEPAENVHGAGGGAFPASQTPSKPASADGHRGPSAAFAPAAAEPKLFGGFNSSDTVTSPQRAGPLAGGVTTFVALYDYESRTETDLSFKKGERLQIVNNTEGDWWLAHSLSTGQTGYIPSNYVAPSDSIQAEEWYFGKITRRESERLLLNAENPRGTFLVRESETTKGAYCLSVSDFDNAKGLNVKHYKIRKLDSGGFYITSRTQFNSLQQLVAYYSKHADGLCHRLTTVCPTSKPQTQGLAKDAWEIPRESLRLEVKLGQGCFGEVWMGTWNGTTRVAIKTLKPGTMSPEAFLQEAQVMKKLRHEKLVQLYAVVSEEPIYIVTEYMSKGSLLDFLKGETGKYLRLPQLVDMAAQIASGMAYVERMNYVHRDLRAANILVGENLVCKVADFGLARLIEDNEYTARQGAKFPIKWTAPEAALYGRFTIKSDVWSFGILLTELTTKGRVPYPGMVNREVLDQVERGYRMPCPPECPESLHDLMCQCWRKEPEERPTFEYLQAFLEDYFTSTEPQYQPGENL

[9] = target: Tyrosine-protein kinase Yes (Homo sapiens) (UniProt P07947); assay: Inhibition of Yes (unknown origin) at 1 uM
Chain of Tyrosine-protein kinase Yes (Homo sapiens) (P07947 2-543 limits assumed): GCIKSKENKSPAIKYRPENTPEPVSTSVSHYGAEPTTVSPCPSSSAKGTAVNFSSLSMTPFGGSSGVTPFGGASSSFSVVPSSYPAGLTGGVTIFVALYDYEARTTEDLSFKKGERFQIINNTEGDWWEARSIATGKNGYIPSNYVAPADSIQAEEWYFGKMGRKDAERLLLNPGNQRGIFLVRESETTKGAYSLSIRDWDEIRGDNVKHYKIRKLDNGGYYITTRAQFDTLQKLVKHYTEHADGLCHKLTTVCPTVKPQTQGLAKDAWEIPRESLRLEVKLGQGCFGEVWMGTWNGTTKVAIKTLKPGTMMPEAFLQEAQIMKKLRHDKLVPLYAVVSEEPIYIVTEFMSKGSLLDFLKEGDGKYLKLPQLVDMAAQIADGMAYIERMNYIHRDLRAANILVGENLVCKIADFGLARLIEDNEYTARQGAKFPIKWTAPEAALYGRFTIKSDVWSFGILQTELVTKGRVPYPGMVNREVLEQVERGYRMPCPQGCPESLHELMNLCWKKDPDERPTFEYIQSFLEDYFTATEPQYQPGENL

[10] = Selectivity ratio of IC50 for SIK1 (unknown origin) to IC50 for SIK2 (unknown origin)
[11] = target: Tyrosine-protein kinase Blk (Homo sapiens) (UniProt P51451); assay: Inhibition of BlK (unknown origin) at 1 uM
Chain of Tyrosine-protein kinase Blk (Homo sapiens) (P51451 2-505 limits assumed): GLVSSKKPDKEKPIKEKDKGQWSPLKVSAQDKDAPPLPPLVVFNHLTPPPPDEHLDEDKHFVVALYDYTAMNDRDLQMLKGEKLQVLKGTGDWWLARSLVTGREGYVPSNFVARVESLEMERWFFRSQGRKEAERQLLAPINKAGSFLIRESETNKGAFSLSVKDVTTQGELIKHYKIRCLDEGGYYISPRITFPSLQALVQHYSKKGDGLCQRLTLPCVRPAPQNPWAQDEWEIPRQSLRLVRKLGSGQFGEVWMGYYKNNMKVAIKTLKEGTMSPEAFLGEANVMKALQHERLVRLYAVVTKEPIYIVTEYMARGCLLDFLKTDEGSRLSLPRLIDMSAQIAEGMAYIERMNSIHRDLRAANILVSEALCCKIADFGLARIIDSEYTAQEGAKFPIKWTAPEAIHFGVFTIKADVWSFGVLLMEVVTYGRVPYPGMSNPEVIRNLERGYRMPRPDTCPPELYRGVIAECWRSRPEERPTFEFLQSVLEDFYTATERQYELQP

[12] = Cmax in Sprague-Dawley rat at 10 mg/kg, po measured upto 24 hrs by LC/MS/MS analysis; assay type: ADME, organism-based; parameters: dose 10 mg/kg, time < 24 hrs, route po; settings: in vivo
[13] = AUC (0 to t) in Sprague-Dawley rat at 10 mg/kg, po measured upto 24 hrs by LC/MS/MS analysis; assay type: ADME, organism-based; parameters: dose 10 mg/kg, time < 24 hrs, route po; settings: in vivo
[14] = target: Tyrosine-protein kinase HCK (Homo sapiens) (UniProt P08631); assay: Inhibition of HcK (unknown origin) at 1 uM
Chain of Tyrosine-protein kinase HCK (Homo sapiens) (P08631 2-526 limits assumed): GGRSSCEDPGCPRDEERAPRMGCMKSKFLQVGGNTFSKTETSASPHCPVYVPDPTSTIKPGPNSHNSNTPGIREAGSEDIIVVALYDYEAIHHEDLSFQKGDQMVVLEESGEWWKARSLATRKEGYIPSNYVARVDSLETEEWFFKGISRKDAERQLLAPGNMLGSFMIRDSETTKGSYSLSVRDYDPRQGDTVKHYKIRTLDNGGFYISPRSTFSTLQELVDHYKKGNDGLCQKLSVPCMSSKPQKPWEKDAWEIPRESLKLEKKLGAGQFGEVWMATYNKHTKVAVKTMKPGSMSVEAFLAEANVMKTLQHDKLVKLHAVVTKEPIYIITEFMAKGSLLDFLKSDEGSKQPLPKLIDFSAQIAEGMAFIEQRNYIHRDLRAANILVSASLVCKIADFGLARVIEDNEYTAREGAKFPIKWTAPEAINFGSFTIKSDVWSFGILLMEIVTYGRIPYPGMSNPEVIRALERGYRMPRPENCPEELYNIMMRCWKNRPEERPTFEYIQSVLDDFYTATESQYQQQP

BMDM [15] = assay: Anti-inflammatory activity against C57BL/6J mouse BMDM cells assessed as decrease in IL-12 level upto 500 nM preincubated for 1 hr followed by LPS stimulation measured after 8 hrs by ELISA method; assay type: functional, cell-based; settings: time 9.0 hrs
[16] = target: Serine/threonine-protein kinase SIK2 (Mus musculus) (UniProt Q8CFH6); assay: Inhibition of SIK2 in C57BL/6J mouse BMDM cells assessed as increase in IL-12 mRNA level at 500 nM preincubated for 1 hr followed by LPS stimulation measured for 1 hr by qPCR analysis; assay type: cell-based; settings: time 2.0 hrs
[17] = target: Serine/threonine-protein kinase SIK2 (Mus musculus) (UniProt Q8CFH6); assay: Inhibition of SIK2 in C57BL/6J mouse BMDM cells assessed as increase in arginase 1 mRNA level at 500 nM preincubated for 1 hr followed by LPS stimulation measured upto 8 hrs by qPCR analysis; assay type: cell-based; settings: time <= 9.0 hrs
[18] = target: Tyrosine-protein kinase TXK (Homo sapiens) (UniProt P42681); assay: Inhibition of Txk (unknown origin) at 1 uM
[19] = Clearance in Sprague-Dawley rat at 5 mg/kg, iv measured upto 24 hrs by LC/MS/MS analysis; assay type: ADME, organism-based; settings: in vivo
[20] = target: Proto-oncogene tyrosine-protein kinase Src (Homo sapiens) (UniProt P12931); assay: Inhibition of cSRC (unknown origin) at 1 uM
[21] = Selectivity ratio of IC50 for SIK3 (unknown origin) to IC50 for SIK2 (unknown origin)
BMDM [22] = assay: Cytotoxicity against C57BL/6J mouse BMDM cells assessed as cell viability upto 500 nM preincubated for 1 hr followed by LPS stimulation measured after 2 to 4 hrs by CCK8 assay; assay type: toxicity, cell-based; settings: 0.5 µM, time 3-5 hrs
[23] = Half life in Sprague-Dawley rat at 5 mg/kg, iv measured upto 24 hrs by LC/MS/MS analysis; assay type: ADME, organism-based; settings: in vivo
Mus musculus [24] = assay: Antiinflammatory activity in DSS-induced colitis C57BL/6J mouse model assessed as increase in colon length at 7.5 to 30 mg/kg, ip measured after 12 days; assay type: functional, organism-based; settings: dose 7.5-30 mg/kg, time 12.0 day
BMDM [25] = assay: Anti-inflammatory activity against C57BL/6J mouse BMDM cells assessed as decrease in IL-12 level at 500 nM preincubated for 1 hr followed by LPS stimulation measured after 8 hrs by ELISA method; assay type: functional, cell-based; settings: time 9.0 hrs
[26] = target: Serine/threonine-protein kinase SIK2 (Mus musculus) (UniProt Q8CFH6); assay: Inhibition of SIK2 in C57BL/6J mouse BMDM cells assessed as increase in LIGHT mRNA level at 500 nM preincubated for 1 hr followed by LPS stimulation measured upto 8 hrs by qPCR analysis; assay type: cell-based; settings: time <= 9.0 hrs

inhibition [1]: inactive
inhibition [3]: Active
inhibition [4]: Active
inhibition [5]: Active
Tmax [6]: 6 min
inhibition [8]: Active
inhibition [9]: Active
Ratio IC50 [10]: 3
inhibition [11]: Active
Cmax [12]: 572 ng/mL
AUC(0-t) at 24 h [13]: 9340 ng·h/mL
inhibition [14]: Active
inhibition [16]: Active
inhibition [17]: Active
inhibition [18]: Active
clearance [19]: 3.33 mL/min/kg
inhibition [20]: Active
Ratio IC50 [21]: 18.3
half-life [23]: 11.5 h
inhibition [26]: Active
Compound: Cc1cccc(F)c1NC(=O)c1cnc(Nc2ccc(N3CCN(C)CC3)c(F)c2)nc1NC1CCC1
Activity (Mus musculus [2]): Active
Activity (Mus musculus [7]): Active
Activity (BMDM [15]): Active
Activity (BMDM [22]): Non-Toxic
Activity (Mus musculus [24]): Active
Activity (BMDM [25]): Active
